Experimental data published in patent US8207127B2, “Compounds for enzyme inhibition” (Onyx Technologies, Inc., priority 2004, dated 2012).

Assays:
[1] = target: 20S proteasome chymotrypsin-like activity (CT-L) (Homo sapiens, UniProt P20618+P28074); assay: 20S proteasome chymotrypsin-like (CT-L) activity inhibition; assay type: biochemical; conditions: chymotrypsin-like activity of 20S proteasome
Protocol: The enzyme inhibitor analogs and prodrugs disclosed herein are useful in part because they inhibit the action of the 20S proteasome. […] That is, the instant compounds show selectivities for the 20S proteasome over other proteases such as cathepsins, calpains, papain, chymotrypsin, trypsin, tripeptidyl pepsidase II. The selectivities of the enzyme inhibitors for 20S proteasome are such that at concentrations below about 50 μM, the enzyme inhibitors show inhibition of the catalytic activity of the 20S proteasome, while not showing inhibition of the catalytic activity of other proteases such as cathepsins, calpains, papain, chymotrypsin, trypsin, tripeptidyl pepsidase II. In preferred embodiments, the enzyme inhibitors show inhibition of the catalytic activity of the 20S proteasome at concentrations below about 10 μM, while not showing inhibition of the catalytic activity of other proteases at these concentrations. In even more preferred embodiments, the enzyme inhibitors show inhibition of the catalytic activity of the 20S proteasome at concentrations below about 1 μM, while not showing inhibition of the catalytic activity of other proteases at these concentrations. Enzyme kinetic assays are disclosed in U.S. application Ser. No. 09/569,748, Example 2 and Stein et al., Biochem. (1996), 35, 3899-3908.
The chymotrypsin-like activity of 20S proteasome is characterized by cleavage of peptides in the immediate vicinity of large hydrophobic residues. In particular, the chymotrypsin-like activity of Ntn hydrolases can be determined by cleavage of a standard substrate. Examples of such substrates are known in the art. For example, a leucylleucylvalinyltyrosine derivative can be used. Enzyme kinetic assays are disclosed in U.S. application Ser. No. 09/569,748, Example 2 and Stein et al., Biochem. (1996), 35, 3899-3908.

[2] = target: T1, proteasome chymotrypsin-like activity (CT-L) (Homo sapiens, UniProt P28074); assay: Cell-based CT-L proteasome activity inhibition
T1 construct: endogenous in cells
T1 sequence (P28074 60-263): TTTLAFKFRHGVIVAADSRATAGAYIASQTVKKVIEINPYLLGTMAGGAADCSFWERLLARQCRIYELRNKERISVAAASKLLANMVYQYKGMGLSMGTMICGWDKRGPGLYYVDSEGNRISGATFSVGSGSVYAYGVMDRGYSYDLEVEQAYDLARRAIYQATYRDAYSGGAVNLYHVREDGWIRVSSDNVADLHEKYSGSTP

IC50 [1] [µM] | IC50 [2] [µM] | SMILES
< 0.05 | < 0.1 | CC(C)C[C@H](NC(=O)[C@H](CCc1ccccc1)NC(=O)CO)C(=O)N[C@@H](Cc1ccccc1)C(=O)N[C@@H](CC(C)C)C(=O)[C@@]1(C)CO1 [Compound 1]
< 0.1 | < 0.1 | CC(C)C[C@H](NC(=O)[C@H](CCc1ccccc1)NC(=O)CN1CCCCC1)C(=O)N[C@@H](Cc1ccccc1)C(=O)N[C@@H](CC(C)C)C(=O)[C@@]1(C)CO1 [Compound 4]
< 0.05 | < 0.15 | CC(C)C[C@H](NC(=O)[C@H](CCc1ccccc1)NC(=O)CCCN(C)C)C(=O)N[C@@H](Cc1ccccc1)C(=O)N[C@@H](CC(C)C)C(=O)[C@@]1(C)CO1 [Compound 7]
< 0.1 | < 0.1 | Cc1nn(C)c(C)c1S(=O)(=O)N[C@@H](CCc1ccccc1)C(=O)N[C@@H](CC(C)C)C(=O)N[C@@H](Cc1ccccc1)C(=O)N[C@@H](CC(C)C)C(=O)[C@@]1(C)CO1 [Compound 8]
